Assay results: patent publication US11046716B2, “Beta-lactamase inhibitors” (priority 2015, dated 2021)

Legend:
[1] = target: T1, AmpC (Enterobacter cloacae, UniProt P05364); experiment: β-lactamase enzyme inhibition assay, p99 AmpC (nitrocefin substrate); type: biochemical
T1 construct: made in house; host or cells: E. coli BL21(DE3)
Outline: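 Compounds are mixed with purified, untagged recombinant β-lactamase and held 15 min at 37 °C. Substrate is then added. Absorbance is followed immediately, and percent inhibition per concentration gives the IC50.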

[2] = target: OXA-48 (UniProt Q6XEC0); experiment: β-lactamase enzyme inhibition assay, Class D oxacillinase; type: biochemical; details: read-out: OXA-48
[3] = target: T2, KPC-2 (Klebsiella pneumoniae, UniProt Q9F663); experiment: β-lactamase enzyme inhibition assay, KPC-2 (imipenem substrate); type: biochemical; details: Class A; imipenem substrate, 300 nm; read-out: KPC-2
T2 construct: made in house; host or cells: E. coli BL21(DE3)
T2 sequence (Q9F663 25-293, looked up): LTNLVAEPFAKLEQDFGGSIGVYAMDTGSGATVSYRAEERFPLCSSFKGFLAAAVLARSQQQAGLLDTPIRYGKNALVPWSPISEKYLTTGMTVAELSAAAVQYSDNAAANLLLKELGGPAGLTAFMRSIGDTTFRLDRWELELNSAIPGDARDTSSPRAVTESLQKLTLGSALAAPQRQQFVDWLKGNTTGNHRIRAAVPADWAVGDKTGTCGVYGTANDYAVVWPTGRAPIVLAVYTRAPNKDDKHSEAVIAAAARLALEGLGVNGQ
Outline: (§1)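 Compounds are mixed with purified, untagged recombinant β-lactamase and held 15 min at 37 °C. Substrate is then added: nitrocefin (100 μM final) for OXA-1, imipenem for KPC-2, cefotaxime for SHV-5. Absorbance is followed immediately, and percent inhibition per concentration gives the IC50.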

[4] = tested on: K. pneumoniae expressing the Class A carbapenemase KPC-2; experiment: Broth microdilution MIC assay with meropenem, K. pneumoniae KPC-2; type: cell-based; details: Fixed Mero (meropenem) 4 μg/mL; K. p. 156319 KPC-3
Outline: (§2)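 CAMHB; cpd 2-fold serial dilution, 16–0.125 μg/mL final; β-lactam static 4 μg/ml; CLSI inoculation; 16–20 h, 37° C; MIC read by eye.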

[5] = tested on: K. pneumoniae producing the Class D carbapenemase OXA-48; experiment: Broth microdilution MIC assay with meropenem, K. pneumoniae OXA-48; type: cell-based; details: Fixed Mero (meropenem) 4 μg/mL; K. p. 11978 OXA-48
Outline: as §2

[6] = target: T3, VIM-2 (Escherichia coli, UniProt Q5U7L7); experiment: β-lactamase enzyme inhibition assay, VIM-2 (nitrocefin substrate); type: biochemical; details: Class B; nitrocefin substrate, 486 nm; read-out: VIM-2
T3 construct: made in house; host or cells: E. coli BL21(DE3)
Outline: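 Enzyme + inhibitor, 37 °C, 15 min; nitrocefin 100 μM final; A486 read for 10 min. % inhibition vs no-inhibitor wells per concentration; IC50 = concentration halving initial hydrolysis rate.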

[7] = target: T4, SHV-5 (Klebsiella pneumoniae, UniProt P0A3M1); experiment: β-lactamase enzyme inhibition assay, SHV-5 (cefotaxime substrate); type: biochemical
T4 construct: made in house; host or cells: E. coli BL21(DE3)
T4 sequence (P0A3M1 22-286): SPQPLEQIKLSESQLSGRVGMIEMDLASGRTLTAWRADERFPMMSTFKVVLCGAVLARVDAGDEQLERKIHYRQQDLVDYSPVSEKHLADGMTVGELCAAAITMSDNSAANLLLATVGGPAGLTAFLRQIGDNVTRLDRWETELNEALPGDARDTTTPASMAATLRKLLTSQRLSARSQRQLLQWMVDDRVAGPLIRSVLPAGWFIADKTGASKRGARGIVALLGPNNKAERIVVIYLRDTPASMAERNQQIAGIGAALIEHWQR
Outline: as §1

[8] = tested on: P. aeruginosa expressing the Class B carbapenemase VIM-2; experiment: Broth microdilution MIC assay with meropenem, P. aeruginosa VIM-2; type: cell-based; details: Fixed Mero (meropenem) 4 μg/mL; P. aerug. 2775 VIM-2
Outline: as §2

[9] = tested on: E. coli expressing the Class A Extended Spectrum Beta-Lactamase (ESBL) CTX-M-15; experiment: Broth microdilution MIC assay with ceftazidime, E. coli CTX-M-15; type: cell-based; details: Fixed CAZ (ceftazidime) 4 μg/mL; E. coli ESBL4 CTX-M-15
Outline: as §2

[10] = tested on: K. pneumoniae expressing the class A carbapenemase KPC-2 and the class B carbapenemase VIM-4; experiment: Broth microdilution MIC assay with meropenem, K. pneumoniae KPC-2 and VIM-4; type: cell-based; details: Fixed Mero (meropenem) 4 μg/mL; K. p. A-1797 KPC-2 VIM-4
Outline: as §2

[11] = tested on: E. cloacae expressing the Class C P99; experiment: Broth microdilution MIC assay with ceftazidime, E. cloacae P99; type: cell-based; details: Fixed CAZ (ceftazidime) 4 μg/mL; E. cl. 144200 p99 AmpC
Outline: as §2

T1 sequence (P05364 21-381): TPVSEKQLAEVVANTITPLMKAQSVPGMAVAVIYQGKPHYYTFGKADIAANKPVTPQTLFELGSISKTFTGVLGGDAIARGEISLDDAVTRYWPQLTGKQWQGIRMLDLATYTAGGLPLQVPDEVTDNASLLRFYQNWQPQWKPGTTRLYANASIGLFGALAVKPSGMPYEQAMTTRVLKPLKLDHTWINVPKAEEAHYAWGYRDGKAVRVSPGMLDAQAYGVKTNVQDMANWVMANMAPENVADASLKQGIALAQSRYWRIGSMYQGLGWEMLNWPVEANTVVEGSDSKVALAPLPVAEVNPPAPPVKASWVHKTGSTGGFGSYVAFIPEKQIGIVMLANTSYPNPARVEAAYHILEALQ

Row | Compound | IC50 [1] [nM] | IC50 [2] [nM] | IC50 [3] [nM] | MIC (μg/mL) of Exemplary Compounds in presence of fixed β-lactams: K. p. 156319 KPC-3 [4] | MIC (μg/mL) of Exemplary Compounds in presence of fixed β-lactams: K. p. 11978 OXA-48 [5] | IC50 [6] [nM] | IC50 [7] [nM] | MIC (μg/mL) of Exemplary Compounds in presence of fixed β-lactams: P. aerug. 2775 VIM-2 [8] | MIC (μg/mL) of Exemplary Compounds in presence of fixed β-lactams: E. coli ESBL4 CTX-M-15 [9] | MIC (μg/mL) of Exemplary Compounds in presence of fixed β-lactams: K. p. A-1797 KPC-2 VIM-4 [10] | MIC (μg/mL) of Exemplary Compounds in presence of fixed β-lactams: E. cl. 144200 p99 AmpC [11]
1 | NCCCn1nnc(CC(=O)N[C@H]2Cc3cccc(C(=O)O)c3OB2O)n1 [Example 51] | < 100 | 1000 to 10000 | < 100 | C (C represents an MIC of <1 μg/mL) | B (B represents an MIC between 1 and 16 μg/mL inclusive) | < 100 | < 100 | C (C represents an MIC of <1 μg/mL) | C (C represents an MIC of <1 μg/mL) | B (B represents an MIC between 1 and 16 μg/mL inclusive) | C (C represents an MIC of <1 μg/mL)
2 | N[C@H]1CCN(C(=O)c2cn(CC(=O)N[C@H]3Cc4cccc(C(=O)O)c4OB3O)nn2)C1 [Example 66, (R)-3-(2-(4-((S)-3-aminopyrrolidine-1-carbonyl)-1H-1,2,3-triazol-1-yl)acetamido)-2-hydroxy-3,4-dihydro-2H-benzo[e][1,2]oxaborinine-8-carboxylic acid] | < 100 | 100 to 1000 | < 100 | C (C represents an MIC of <1 μg/mL) | B (B represents an MIC between 1 and 16 μg/mL inclusive) | < 100 | < 100 | C (C represents an MIC of <1 μg/mL) | C (C represents an MIC of <1 μg/mL) | B (B represents an MIC between 1 and 16 μg/mL inclusive) | C (C represents an MIC of <1 μg/mL)
3 | NCCn1ncnc1CC(=O)N[C@H]1Cc2cccc(C(=O)O)c2OB1O [Example 119, (R)-3-(2-(1-(2-aminoethyl)-1H-1,2,4-triazol-5-yl)acetamido)-2-hydroxy-3,4-dihydro-2H-benzo[e][1,2]oxaborinine-8-carboxylic acid] | < 100 | 100 to 1000 | 100 to 1000 | C (C represents an MIC of <1 μg/mL) | B (B represents an MIC between 1 and 16 μg/mL inclusive) | 100 to 1000 | < 100 | C (C represents an MIC of <1 μg/mL) | C (C represents an MIC of <1 μg/mL) | B (B represents an MIC between 1 and 16 μg/mL inclusive) | C (C represents an MIC of <1 μg/mL)
4 | Nc1nc(=O)c(Cc2cn(CC(=O)N[C@H]3Cc4cccc(C(=O)O)c4OB3O)nn2)c(N)[nH]1 [Example 64, (R)-3-(2-(4-((2,6-diamino-4-oxo-1,4-dihydropyrimidin-5-yl)methyl)-1H-1,2,3-triazol-1-yl)acetamido)-2-hydroxy-3,4-dihydro-2H-benzo[e][1,2]oxaborinine-8-carboxylic acid] | < 100 | < 100 | < 100 | C (C represents an MIC of <1 μg/mL) | B (B represents an MIC between 1 and 16 μg/mL inclusive) | 100 to 1000 | < 100 | B (B represents an MIC between 1 and 16 μg/mL inclusive) | C (C represents an MIC of <1 μg/mL) | B (B represents an MIC between 1 and 16 μg/mL inclusive) | C (C represents an MIC of <1 μg/mL)
5 | O=C(Cn1cc(-c2cccnc2)nn1)N[C@H]1Cc2cccc(C(=O)O)c2OB1O [Example 12, (R)-2-hydroxy-3-(2-(4-(pyridin-3-yl)-1H-1,2,3-triazol-1-yl)acetamido)-3,4-dihydro-2H-benzo[e][1,2]oxaborinine-8-carboxylic acid] | < 100 | 100 to 1000 | < 100 | B (B represents an MIC between 1 and 16 μg/mL inclusive) | B (B represents an MIC between 1 and 16 μg/mL inclusive) | 1000 to 10000 | < 100 | B (B represents an MIC between 1 and 16 μg/mL inclusive) | C (C represents an MIC of <1 μg/mL) | A (A represents an MIC>16 μg/mL) | C (C represents an MIC of <1 μg/mL)
6 | N=C(N)N1CC(c2cn(CC(=O)N[C@H]3Cc4cccc(C(=O)O)c4OB3O)nn2)C1 [Example 91, (R)-3-(2-(4-(1-carbamimidoylazetidin-3-yl)-1H-1,2,3-triazol-1-yl)acetamido)-2-hydroxy-3,4-dihydro-2H-benzo[e][1,2]oxaborinine-8-carboxylic acid] | < 100 | 1000 to 10000 | < 100 | C (C represents an MIC of <1 μg/mL) | B (B represents an MIC between 1 and 16 μg/mL inclusive) | 100 to 1000 | < 100 | B (B represents an MIC between 1 and 16 μg/mL inclusive) | C (C represents an MIC of <1 μg/mL) | B (B represents an MIC between 1 and 16 μg/mL inclusive) | C (C represents an MIC of <1 μg/mL)
7 | CC(C)NCCc1cn(CC(=O)N[C@H]2Cc3cccc(C(=O)O)c3OB2O)nn1 [Example 7, (R)-2-hydroxy-3-(2-(4-(2-(isopropylamino)ethyl)-1H-1,2,3-triazol-1-yl)acetamido)-3,4-dihydro-2H-benzo[e][1,2]oxaborinine-8-carboxylic acid] | < 100 | 1000 to 10000 | 1000 to 10000 | C (C represents an MIC of <1 μg/mL) | B (B represents an MIC between 1 and 16 μg/mL inclusive) | 1000 to 10000 | 100 to 1000 | C (C represents an MIC of <1 μg/mL) | C (C represents an MIC of <1 μg/mL) | B (B represents an MIC between 1 and 16 μg/mL inclusive) | C (C represents an MIC of <1 μg/mL)
